PubChem BioAssay (NCI)
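Results reflect a 48-hour exposure of cells in 96-well plates to compound at five concentrations. TGI denotes the concentration required for complete inhibition of growth.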

What was measured:
Assay in all cases: growth of human tumour cells (NCI), 48 h
HOP-62 NSCLC = test system: HOP-62 NSCLC
SK-OV-3 ovarian = test system: SK-OV-3 ovarian
LOX IMVI melanoma = test system: LOX IMVI melanoma
SK-MEL-28 melanoma = test system: SK-MEL-28 melanoma
SNB-75 CNS = test system: SNB-75 CNS
HT29 colon = test system: HT29 colon
HCT-15 colon = test system: HCT-15 colon
MDA-MB-435 = test system: MDA-MB-435
RPMI-8226 leukemia = test system: RPMI-8226 leukemia
SR leukemia = test system: SR leukemia

| Compound | TGI (HOP-62 NSCLC) | TGI (SK-OV-3 ovarian) | TGI (LOX IMVI melanoma) | TGI (SK-MEL-28 melanoma) | TGI (SNB-75 CNS) | TGI (HT29 colon) | TGI (HCT-15 colon) | TGI (MDA-MB-435) | TGI (RPMI-8226 leukemia) | TGI (SR leukemia) |
| --- | --- | --- | --- | --- | --- | --- | --- | --- | --- | --- |
| O=C(O)c1cc(Nc2c(O)c3c(c(O)c2Cl)C(=O)C=CC3=O)ccc1O | > 10 µM | > 10 µM | > 10 µM | > 10 µM | > 10 µM | > 10 µM | > 10 µM | > 10 µM |  |  |
| Cc1cccc(=O)c([O-])c1.Cc1cccc(=O)c([O-])c1.Cc1cccc(=O)c([O-])c1.Cc1cccc(=O)c([O-])c1.[Th+4] | > 100 µM | > 100 µM | > 100 µM | > 100 µM | > 77.7 µM | > 49.4 µM | > 100 µM |  | > 100 µM | > 100 µM |
| O=c1oc2ccccc2c(O)c1C(c1ccc(O)cc1)c1c(O)c2ccccc2oc1=O | > 100 µM |  | > 100 µM | > 100 µM | 97.8 µM | > 100 µM | > 100 µM | > 100 µM |  |  |
| CCn1c(O)c(C(=O)NC(C)c2ccc([N+](=O)[O-])cc2)c(=O)n(CC)c1=S (configuration not stated) | 6.54 µM | 7.38 µM | 10.9 µM | 17.6 µM | 5.34 µM | 5.17 µM | 10.7 µM | 13.6 µM | 15 µM |  |
| Oc1ccc(O)c(Sc2nnc(CCCCCCCCc3nnc(Sc4cc(O)ccc4O)o3)o2)c1 | > 100 µM | > 100 µM |  | > 100 µM | > 100 µM | > 100 µM | > 100 µM | 35.8 µM | > 100 µM |  |
| COc1ccc(C[C@H]2COC(=O)[C@@H]2Cc2ccccc2)cc1OC | > 100 µM | > 100 µM | > 100 µM | > 100 µM |  | > 100 µM |  |  | > 100 µM | > 100 µM |
| Cc1ccc(Cl)c2c(=O)cc(-c3ccccc3)[nH]c12 | > 100 µM | > 100 µM | > 100 µM | > 100 µM | 87.1 µM | > 100 µM | > 100 µM |  | > 100 µM | > 100 µM |
| COc1ccccc1NC(=O)CSC(N)=O | 80.2 µM | > 100 µM | > 100 µM | > 100 µM | 84.3 µM | > 100 µM | > 100 µM |  | > 100 µM | > 100 µM |
| C=C1CN=C(Nc2ccc(F)cc2F)S1 | > 100 µM | > 100 µM | 49.2 µM | > 100 µM | > 100 µM | > 100 µM | > 100 µM |  | > 100 µM | > 100 µM |
| OCC1c2ccccc2-n2nc(-c3ccccc3)c(O)c21 (configuration not stated) | > 100 µM | > 100 µM | 47 µM | > 100 µM | > 100 µM | 76.4 µM | 29.2 µM | 92.2 µM |  |  |
| Cc1ccc(S(=O)(=O)CC2CCCn3c2c(C#N)c2ccccc23)cc1 (configuration not stated) | > 100 µM | > 100 µM | > 100 µM | > 100 µM | > 100 µM | > 100 µM | > 100 µM | > 100 µM | > 100 µM |  |
| N#C[C@H]1C(=O)C(c2nc3ccccc3[nH]2)S[C@H]1c1ccccc1 (some centres not stated) |  | > 100 µM | > 100 µM | > 100 µM |  | > 100 µM | > 100 µM | 87.8 µM | 89.7 µM | > 100 µM |
| CCOC(=O)/C(C1=N[C@H](C(=O)OCC)CS1)=C(\O)c1ccccc1 | > 100 µM |  | > 100 µM | > 100 µM | > 100 µM | > 100 µM | > 100 µM |  | > 100 µM | > 100 µM |
| C/C(=N\NC(=O)c1ccncc1)c1cccc(C(F)(F)F)c1 | > 10 µM | > 10 µM | > 10 µM | > 10 µM | > 10 µM | > 10 µM | > 10 µM |  | > 10 µM | > 10 µM |
| O=C1/C(=C/c2cccs2)N=C(c2ccccc2)N1c1nc2ccccc2s1 | > 100 µM |  | > 100 µM | > 100 µM |  | > 100 µM | > 100 µM | > 100 µM | 52.2 µM | > 100 µM |
| Cc1ccc(C(=O)NN=C(/N=N/c2cccc(C)c2)c2ccc(N(C)C)cc2)cc1 |  | > 100 µM | > 100 µM | > 100 µM |  | > 100 µM | > 100 µM | > 100 µM | > 100 µM | > 100 µM |
| CC(=O)NCC1OC2COC(c3ccccc3)OC2C2N=C(c3ccccc3)OC12 (configuration not stated) | > 100 µM | > 100 µM | > 100 µM | > 100 µM | > 100 µM | > 100 µM | > 100 µM | > 100 µM | 89.1 µM |  |
